The EC50 is the concentration at which the effect is half-maximal. High values mean lower potency in that assay, low ones higher potency in that assay.

These results are taken from ChEMBL document CHEMBL4118284, “Exploration of diphenylalkyloxadiazoles as novel cardiac myosin activator” (Bioorg Med Chem Lett, 2018).

The species named for assay [1] is Bos taurus. Description: Activation of actin-stimulated bovine cardiac myosin S1 fragment ATPase activity in sarcomere at 10 uM after 10 mins by spectrophotometric analysis relative to control.
The species named for a further assay is Gallus gallus. Description: Activation of actin-stimulated chicken gizzard smooth muscle myosin S1 fragment ATPase activity at 100 uM after 10 mins by spectrophotometric analysis relative to control.
The species entered for assay [2] is Bos taurus. Description: Activation of actin-stimulated bovine cardiac myosin S1 fragment ATPase activity in sarcomere at 1 uM after 10 mins by spectrophotometric analysis relative to control.
Assay [3] in a line: Activation of actin-stimulated bovine cardiac myosin S1 fragment ATPase activity in sarcomere after 10 mins by spectrophotometric analysis. Further details: species or system Bos taurus.
The species entered for another assay is Oryctolagus cuniculus. As to the kind of experiment: Activation of actin-stimulated rabbit psoas skeletal muscle myosin S1 fragment ATPase activity at 100 uM after 10 mins by spectrophotometric analysis relative to control.
For assay [4], the species on record is Bos taurus. As to the kind of experiment: Activation of actin-stimulated bovine cardiac myosin S1 fragment ATPase activity in sarcomere at 5 uM after 10 mins by spectrophotometric analysis relative to control.

For the compound `c1ccc(CCCCc2nnc(C3CCOCC3)o2)cc1`, the Activity in the assay filed under Bos taurus [1] was determined as 11.2%.

`c1ccc(CCCc2nnc(-c3ccccc3)o2)cc1`: the Activity is -3.7% in the assay filed under Gallus gallus; 59.2% in the assay listed under Bos taurus [1]; 32.5% in the assay filed under Bos taurus [2]; -2.5% in the assay listed under Oryctolagus cuniculus; 55.2% in the assay listed under Bos taurus [4]. The compound also gave an EC50 in assay [3] of 3.27 µM.

On to `COc1ccc(Cc2nnc(CCCc3ccccc3)o2)cc1OC`, for which, in the assay filed under Bos taurus [1], the Activity is 16.1%.

As to `COc1ccc(-c2nnc(CCCc3ccccc3)o2)cc1`, the Activity in the assay listed under Bos taurus [1] was determined as 37.3%.

In the case of `CN(C)S(=O)(=O)c1ccc(CCc2nnc(CCCc3ccccc3)o2)cc1`, the Activity in the assay filed under Bos taurus [1] was 33.6%.

In the case of `NS(=O)(=O)c1ccc(-c2nnc(NCCCc3ccccc3)o2)cc1`, in the assay listed under Bos taurus [1], the Activity was 33%.

As for `COc1ccc(-c2noc(CCCc3ccccc3)n2)cc1OC`, in the assay filed under Bos taurus [1], the Activity came out at 46.8%.

Regarding `COc1ccc(CCc2nnc(CCCc3ccccc3)o2)cc1OC`, the Activity in the assay listed under Bos taurus [1] was 38.7%.

For the compound `c1ccc(CCCCc2nnc(-c3ccncc3)o2)cc1`, the Activity in the assay listed under Bos taurus [1] is 8.6%.

As to `c1ccc(CCCc2nc(Cc3ccccc3)no2)cc1`, the Activity in the assay listed under Gallus gallus amounted to 4.2%; in the assay filed under Bos taurus [1], 66.3%; in the assay filed under Bos taurus [2], 34.1%; in the assay filed under Oryctolagus cuniculus it was 3.3%; in the assay listed under Bos taurus [4] it was 60.3%. For the same compound, the concentration giving a half-maximal response (EC50) in assay [3] came out at 3.02 µM.

In the case of `c1ccc(CCCc2nnc(Cc3ccccc3)o2)cc1`, the Activity in the assay filed under Gallus gallus is -3.9%; in the assay filed under Bos taurus [1] it was 62.9%; in the assay filed under Bos taurus [2], 33.5%; in the assay filed under Oryctolagus cuniculus it was 1.8%; in the assay filed under Bos taurus [4], 60.2%. This compound also had an EC50 in assay [3] of 3.06 µM.

On to `COc1ccc(-c2nnc(CCCc3ccccc3)o2)cc1OC`, for which, in the assay listed under Bos taurus [1], the Activity is 40.2%.

As for `c1ccc(CCNc2nnc(-c3ccccc3)o2)cc1`, the Activity in the assay filed under Bos taurus [1] turned out to be 35.2%.

In the case of `Cc1ccc2c(c1)C(=O)[C@]1(O)CCN(c3ccccc3)C1=N2`, the Activity is -37.3% in the assay filed under Gallus gallus and -54.1% in the assay listed under Oryctolagus cuniculus.

Turning to `c1ccc(CCCCNc2nnc(-c3ccccc3)o2)cc1`, the Activity in the assay filed under Bos taurus [1] amounted to 32.8%.

Turning to `COc1ccc(-c2nnc(NCCCc3ccccc3)o2)cc1OC`, in the assay listed under Bos taurus [1], the Activity stood at 41.7%.

On to `c1ccc(CCCc2nnc(CCc3ccccc3)o2)cc1`, for which the Activity in the assay filed under Gallus gallus is 4.1%; in the assay listed under Bos taurus [1], 51%; in the assay listed under Bos taurus [2], 29.7%; in the assay listed under Oryctolagus cuniculus it was -3.1%; in the assay listed under Bos taurus [4], 45.3%. The concentration giving a half-maximal response (EC50) in assay [3] is 4.5 µM.

For the compound `c1ccc(CCCNc2nnc(-c3ccccc3)o2)cc1`, the Activity in the assay listed under Gallus gallus came out at 2.3%; in the assay listed under Bos taurus [1], 50.5%; in the assay listed under Bos taurus [2], 28.4%; in the assay filed under Oryctolagus cuniculus, 1.9%; in the assay filed under Bos taurus [4], 42.6%. Also, in assay [3], the concentration giving a half-maximal response (EC50) was determined as 5.25 µM.

Turning to `NS(=O)(=O)c1ccc(-c2nnc(CCCc3ccccc3)o2)cc1`, the Activity in the assay filed under Bos taurus [1] stood at 22.5%.

Take `COc1ccc(Cc2noc(CCCc3ccccc3)n2)cc1OC`: the Activity in the assay filed under Bos taurus [1] came to 18.4%.

Regarding `c1ccc(CCCc2nnc(C3CCOCC3)o2)cc1`, in the assay filed under Bos taurus [1], the Activity was determined as 30.8%.

Regarding `COC(=O)N1CCN(Cc2cccc(NC(=O)Nc3ccc(C)nc3)c2F)CC1` [OMECAMTIV MECARBIL], the Activity is -3.8% in the assay listed under Gallus gallus; 56.5% in the assay filed under Bos taurus [1]; 31.2% in the assay filed under Bos taurus [2]; 2.2% in the assay filed under Oryctolagus cuniculus; 49.9% in the assay filed under Bos taurus [4]. Moreover, in assay [3], the midpoint of the response, the EC50, lay at 3.35 µM.

With `c1ccc(CCCCc2nc(-c3ccccc3)no2)cc1`, the Activity in the assay listed under Bos taurus [1] was found to be 35.9%.

Take `CN(C)S(=O)(=O)c1ccc(CCCc2nnc(-c3ccccc3)o2)cc1`: in the assay filed under Bos taurus [1], the Activity is 11.9%.

As for `c1ccc(CCCc2nnc(CCC3CCCCC3)o2)cc1`, the Activity in the assay filed under Gallus gallus is 4.5%; in the assay filed under Bos taurus [1], 58.9%; in the assay filed under Bos taurus [2] it was 30%; in the assay filed under Oryctolagus cuniculus, -2.7%; in the assay listed under Bos taurus [4] it was 53.1%. The same compound yielded an EC50 in assay [3] of 3.48 µM.

As for `Fc1ccc(Cc2nnc(CCCc3ccccc3)o2)cc1`, the Activity in the assay filed under Bos taurus [1] was 4.2%.

For `c1ccc(CCCNc2nnc(-c3ccncc3)o2)cc1`, in the assay listed under Bos taurus [1], the Activity turned out to be 22.9%.

With `c1ccc(CCCc2nnc(-c3ccncc3)o2)cc1`, the Activity in the assay listed under Bos taurus [1] came to 15.9%.

Take `c1ccc(CCCc2nnc(CCCc3ccccc3)o2)cc1`: the Activity in the assay listed under Bos taurus [1] was found to be 2.5%.

Take `CN(C)S(=O)(=O)c1ccc(CCCc2nc(-c3ccccc3)no2)cc1`: in the assay filed under Bos taurus [1], the Activity came out at 37.2%.

On to `c1ccc(CCCc2nc(-c3ccccc3)no2)cc1`, for which the Activity in the assay filed under Gallus gallus was -2.4%; in the assay filed under Bos taurus [1], 60.7%; in the assay listed under Bos taurus [2] it was 31.9%; in the assay filed under Oryctolagus cuniculus, -5.3%; in the assay listed under Bos taurus [4], 56.4%. This compound showed an EC50 in assay [3] of 3.18 µM.
